Consider four compounds from patent US5654436A, “2-substituted benzimidazole derivatives” (American Home Products Corporation, priority 1995, dated 1997).

In this experiment the test system is Porcine Smooth Muscle Cell. Kind of experiment: Inhibition of smooth muscle cell proliferation (3H-thymidine, serum or PDGF stimulated). Format: cell-based. The conditions noted are these: Sus scrofa, porcine aortic smooth muscle cells, 24-36 hours; for inhibition at 10 µM: read-out: Porcine Smooth Muscle Cell Antiproliferation % Inhibition at x Concentration, Serum. The procedure: The ability of the compounds of the present invention to inhibit smooth muscle cell proliferation was established using isolated porcine nortic smooth muscle cells in a modification of the procedure of Casteliot et al. J. Biol. Chem 257(19) 11256 (1982), as follows:
Fresh porcine aortas, scrupulously cleansed of fatty tissue, are rinsed in sterile phosphate-buffered saline with 2% antibiotic-antimycotic (100×) liquid ( 10,000 units of penicillin (base), 10,000 μg of streptomycin (base), and 25 μg of amphotericin B/mL utilizing penicillin G (sodium salt), streptomycin sulfate, and amphotericin B as Fungizone® in 0.85% saline, available from Gibco Laboratories, Grand Island Biological Co., Grand Island, N.Y.). The tissue is then digested in 10-15 mL of an enzyme solution containing collagerinse type I, 165 U/mL; elastase type III, 15 U/mL; BSA, 2 mg/mL; and soybean trypsin inhibitor, 0.375 mg/mL, followed by incubation at 37° C. under 5% CO2 atmosphere for 10 to 15 minutes. After this treatment, the outer surface adventitia is removed by peeling with a forceps. The aorta is then longitudinally cut and laid open and the endothelial layer is removed by scraping.
The medial layer of cells is rinsed in the enzyme solution, and placed in a new 100 mm dish with 10 mL of enzyme solution. The medial layer of cells is minced using a fine pair of scissors and digested for 2-3 hours at 37° C. in 30 mL of fresh enzyme solution. After digestion, the medial tissue is homogenized using a sterile Pasteur pipette with a fire polished tip or an Eppendorf pipetter with a 200-1000 gL sterile pipette tip. The suspension is then centrifuged for 10 minutes at 8000 rpm and the pellet is suspended in 4-6 mL of fresh enzyme solution and plated onto 4-6 100 mm flasks with vented caps. The cells are then allowed to grow to confluence and split using 0.25% trypsin. The cells are evaluated for purity and overall quality using antibody to SMC actin.
The cells are assayed in early passage (generally passage 3-7) at sub-confluent conditions. Cultures are grown in 16 mm (24 well) multi-well culture dishes in media 199 supplemented with 10% fetal bovine serum and 2% antibiotic/antimycotic. At subconfluence, the cells are placed in a defined serum free, lymphocyte medium (AIM-V; Gibeo) for 24-48 hours prior to initiating the experimental protocol.
The standard test procedure is initiated by addition of the test compound, ^3 H-thymidine and serum or a specific growth factor to the serum deprived synchronized cells. Growth factor and serum stimulations are optimized for each cell type. The test compounds are added to each well at 50 fold dilution (20 μL/well) and the plates are incubated for 24-36 hours at 37° C. in 5% CO2 atmosphere. Test compounds are dissolved in 50% ethanol and assayed at 1, 10, and 100 μM. As a control, RG 50872 (Bilder, G. A.; et al., Am. J. Cell Physiol., 1991; 260: C721) is routinely assayed under the conditions of each cell preparation at a concentration of 5 μM.
At the completion of the experiment, the plates are placed on ice, washed three times with ice cold PBS and incubated in ice cold 10% trichloroacetic acid (TCA) for 30 minutes to remove acid soluble proteins. Each solution is transferred to a scintillation vial containing 0.4N HCl (500 μL/vial to neutralize NaOH) and each well is rinsed two times with water (500 μL) for a total volume of 2 mL/vial.
Data is quantitated by subjecting the vials to a scintillation counter, in triplicate, for both control and experimental samples. Control (100%) data is obtained from maximally stimulated cells, as the result of growth factor or serum stimulation. Experimental data is obtained from cells maximally stimulated with growth factor or serum and treated with a test compound. (The platelet-derived growth factor used in the assay was human recombinant PDGF-AB purchased from Upstate Biotechnology Inc., Lake Placid, N.Y.). Data is expressed as a percent of control from which IC50 s are determined.

[1] abbreviates: human recombinant PDGF-AB stimulated, read-out: Porcine Smooth Muscle Cell Antiproliferation IC50, PDGF.

Where two headings read alike, the source gives them in different places.

`Clc1ccc(Cn2c(-c3ccccn3)nc3ccccc32)cc1Cl` [Example 1, 1-(3,4-Dichiorobenzyl)-2-pyridin-2-yl-1H-benzoimidazole]: under setting [1], the IC50 turned out to be 4.4 µM. Also, under “serum stimulated”, the inhibition at 10 µM amounted to 39.8%.

Regarding `COC(=O)c1ccc(Cn2c(-c3ccccn3)nc3ccccc32)cc1` [Example 2, 4-[2-(Pyridin-2-yl)-benzoimidazol-1-ylmethyl]-benzoic acid methyl ester], the IC50 under setting [1] amounted to 1.1 µM. Further, the inhibition at 10 µM (serum stimulated) is 38.4%.

On to `COC(=O)c1ccc(Cn2c(C(F)(F)F)nc3cc(C)c(C)cc32)cc1` [Example 3, 4-(5,6-Dimethyl-2-trifluoromethyl-benzoimidazol-1-ylmethyl)-benzoic acid methyl ester], for which the IC50 under setting [1] stood at 2.47 µM. In addition, the inhibition at 10 µM (serum stimulated) came out at 41.3%.

Take `CCCc1nc2cc([N+](=O)[O-])ccc2n1Cc1ccc(C(=O)OCC)cc1` [Example 4, 4-(5-Nitro-2-propyl-benzoimidazol-1-ylmethyl)-benzoic acid ethyl ester]: the IC50 reads like this: under setting [1], 0.76 µM; (serum stimulated, read-out: Porcine Smooth Muscle Cell Antiproliferation IC50, Serum) 0.66 µM.
